Among the data in ChEMBL document CHEMBL1143181, “2-Aminoresorcinol is a potent alpha-glucosidase inhibitor” (Bioorg Med Chem Lett, 2008) are IC50, inhibition and Ki values, retold here.

The target in assay [1] is T1, Sucrase-isomaltase, intestinal (Rattus norvegicus, UniProt P23739). Description: Inhibition of rat intestinal sucrase.
The subject of a further assay is Prunus dulcis. In words: Inhibition of almond beta glucosidase. Particulars: concentration not given here.
The test system of a further assay is Canavalia ensiformis. Description: Inhibition of jack bean alpha mannosidase. To be noted: concentration not given here.
The target of assay [2] is Alpha-galactosidase (Coffea arabica) (UniProt Q5DUH8). Description: Inhibition of green coffee bean alpha galactosidase. To be noted: concentration not given here.
The target of assay [3] is T2, Beta-galactosidase (Bos taurus) (UniProt Q58D55).
T2 sequence (whole entry): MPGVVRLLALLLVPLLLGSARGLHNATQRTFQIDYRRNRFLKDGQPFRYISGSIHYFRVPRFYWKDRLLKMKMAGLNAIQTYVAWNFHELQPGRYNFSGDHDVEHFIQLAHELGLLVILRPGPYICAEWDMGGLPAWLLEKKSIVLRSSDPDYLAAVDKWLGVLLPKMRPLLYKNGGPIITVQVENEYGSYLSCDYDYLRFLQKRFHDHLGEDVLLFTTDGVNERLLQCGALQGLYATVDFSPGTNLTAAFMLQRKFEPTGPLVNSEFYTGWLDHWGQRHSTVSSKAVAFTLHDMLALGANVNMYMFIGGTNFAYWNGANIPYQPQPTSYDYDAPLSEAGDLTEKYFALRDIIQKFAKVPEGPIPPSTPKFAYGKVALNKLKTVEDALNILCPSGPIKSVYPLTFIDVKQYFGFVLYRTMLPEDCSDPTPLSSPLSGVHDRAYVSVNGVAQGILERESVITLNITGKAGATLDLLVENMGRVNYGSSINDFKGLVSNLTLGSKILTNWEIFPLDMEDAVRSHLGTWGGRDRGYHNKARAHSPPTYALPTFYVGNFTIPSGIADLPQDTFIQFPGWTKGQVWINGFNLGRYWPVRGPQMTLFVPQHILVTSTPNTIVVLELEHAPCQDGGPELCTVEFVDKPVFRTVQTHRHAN
Description: Inhibition of bovine liver beta galactosidase. To be noted: concentration not given here.

Assay [4] has as its target T3, Alpha-amylase (Sus scrofa domesticus) (UniProt Q7M328).
T3 sequence (whole entry): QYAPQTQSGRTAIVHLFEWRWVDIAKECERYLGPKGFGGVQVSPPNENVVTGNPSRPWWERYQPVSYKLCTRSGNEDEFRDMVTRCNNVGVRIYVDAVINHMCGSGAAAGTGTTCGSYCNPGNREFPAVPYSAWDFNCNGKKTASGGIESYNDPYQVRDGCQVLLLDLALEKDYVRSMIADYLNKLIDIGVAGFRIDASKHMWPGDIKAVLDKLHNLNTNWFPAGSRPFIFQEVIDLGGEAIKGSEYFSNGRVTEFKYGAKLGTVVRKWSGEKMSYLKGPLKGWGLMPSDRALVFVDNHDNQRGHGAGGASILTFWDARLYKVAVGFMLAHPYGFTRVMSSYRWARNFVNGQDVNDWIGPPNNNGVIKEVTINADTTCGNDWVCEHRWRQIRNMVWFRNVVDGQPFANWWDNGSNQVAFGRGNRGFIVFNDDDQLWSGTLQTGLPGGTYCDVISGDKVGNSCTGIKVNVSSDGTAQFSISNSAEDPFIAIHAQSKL
Description: Inhibition of pig pancreas alpha amylase. To be noted: concentration not given here.

Assay [5] concerns the target T1, Sucrase-isomaltase, intestinal. In words: Inhibition of sucrose hydrolyzing activity of rat intestinal alpha glucosidase.
The target in assay [6] is Sucrase-isomaltase, intestinal (Rattus norvegicus) (UniProt P23739). Description: Inhibition of rat intestinal sucrase at 500 uM.
Assay [7] has the same target. Description: Inhibition of rat intestinal isomaltase at 500 uM.

Structures are written as SMILES.

Sequence of Sucrase-isomaltase, intestinal (Rattus norvegicus) (P23739 1-1013 limits assumed): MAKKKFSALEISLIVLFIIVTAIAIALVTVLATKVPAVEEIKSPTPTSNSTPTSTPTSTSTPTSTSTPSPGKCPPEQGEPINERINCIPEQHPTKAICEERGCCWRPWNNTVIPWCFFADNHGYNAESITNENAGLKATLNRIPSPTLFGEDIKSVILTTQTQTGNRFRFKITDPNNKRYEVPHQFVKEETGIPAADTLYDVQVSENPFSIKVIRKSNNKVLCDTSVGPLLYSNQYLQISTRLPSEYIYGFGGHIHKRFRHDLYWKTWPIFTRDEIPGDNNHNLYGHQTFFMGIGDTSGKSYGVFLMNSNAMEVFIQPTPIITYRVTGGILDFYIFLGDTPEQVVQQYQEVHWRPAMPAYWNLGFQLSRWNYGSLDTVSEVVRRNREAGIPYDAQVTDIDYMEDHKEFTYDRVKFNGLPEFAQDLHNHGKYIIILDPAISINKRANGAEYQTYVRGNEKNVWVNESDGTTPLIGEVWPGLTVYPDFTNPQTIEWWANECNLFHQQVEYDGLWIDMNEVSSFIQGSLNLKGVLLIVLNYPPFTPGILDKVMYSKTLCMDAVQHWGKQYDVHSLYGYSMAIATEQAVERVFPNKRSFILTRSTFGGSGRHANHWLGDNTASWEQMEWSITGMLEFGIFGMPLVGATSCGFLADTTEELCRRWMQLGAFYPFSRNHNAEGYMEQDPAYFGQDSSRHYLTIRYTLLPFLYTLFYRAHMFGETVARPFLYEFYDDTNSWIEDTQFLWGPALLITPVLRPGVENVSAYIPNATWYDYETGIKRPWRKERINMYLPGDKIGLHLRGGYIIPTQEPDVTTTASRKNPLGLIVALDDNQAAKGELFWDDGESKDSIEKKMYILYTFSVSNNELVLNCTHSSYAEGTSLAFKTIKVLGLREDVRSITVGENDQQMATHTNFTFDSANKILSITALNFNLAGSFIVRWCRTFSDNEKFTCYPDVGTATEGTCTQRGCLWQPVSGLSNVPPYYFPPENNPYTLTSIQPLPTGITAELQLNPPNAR
Sequence of Sucrase-isomaltase, intestinal (Rattus norvegicus) (P23739 1014-1841 limits assumed): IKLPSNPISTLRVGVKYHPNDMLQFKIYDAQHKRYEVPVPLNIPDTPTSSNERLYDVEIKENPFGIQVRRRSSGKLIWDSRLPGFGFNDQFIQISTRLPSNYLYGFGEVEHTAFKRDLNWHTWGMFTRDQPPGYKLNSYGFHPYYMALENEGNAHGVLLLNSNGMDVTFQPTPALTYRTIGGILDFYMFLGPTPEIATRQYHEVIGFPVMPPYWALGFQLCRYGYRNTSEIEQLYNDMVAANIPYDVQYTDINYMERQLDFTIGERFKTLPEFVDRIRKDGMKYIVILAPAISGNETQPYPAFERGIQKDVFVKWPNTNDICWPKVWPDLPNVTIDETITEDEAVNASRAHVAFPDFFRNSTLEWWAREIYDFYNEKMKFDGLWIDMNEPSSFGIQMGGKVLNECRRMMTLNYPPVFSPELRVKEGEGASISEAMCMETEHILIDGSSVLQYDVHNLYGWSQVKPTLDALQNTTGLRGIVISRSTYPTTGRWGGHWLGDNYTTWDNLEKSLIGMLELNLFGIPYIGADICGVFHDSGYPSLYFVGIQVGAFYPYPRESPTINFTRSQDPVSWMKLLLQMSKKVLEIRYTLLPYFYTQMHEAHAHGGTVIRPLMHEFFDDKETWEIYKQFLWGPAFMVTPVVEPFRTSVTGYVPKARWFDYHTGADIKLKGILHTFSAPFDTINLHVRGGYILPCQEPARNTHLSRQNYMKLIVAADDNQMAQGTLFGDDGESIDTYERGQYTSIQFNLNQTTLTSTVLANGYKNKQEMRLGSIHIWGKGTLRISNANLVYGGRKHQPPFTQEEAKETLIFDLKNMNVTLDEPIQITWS
T1 sequence (P23739 1-1013 limits assumed): as the sequence (P23739 1-1013 limits assumed) above
T1 sequence (P23739 1014-1841 limits assumed): as the sequence (P23739 1014-1841 limits assumed) above
Sequence of Alpha-galactosidase (Coffea arabica) (Q5DUH8 as listed by the source): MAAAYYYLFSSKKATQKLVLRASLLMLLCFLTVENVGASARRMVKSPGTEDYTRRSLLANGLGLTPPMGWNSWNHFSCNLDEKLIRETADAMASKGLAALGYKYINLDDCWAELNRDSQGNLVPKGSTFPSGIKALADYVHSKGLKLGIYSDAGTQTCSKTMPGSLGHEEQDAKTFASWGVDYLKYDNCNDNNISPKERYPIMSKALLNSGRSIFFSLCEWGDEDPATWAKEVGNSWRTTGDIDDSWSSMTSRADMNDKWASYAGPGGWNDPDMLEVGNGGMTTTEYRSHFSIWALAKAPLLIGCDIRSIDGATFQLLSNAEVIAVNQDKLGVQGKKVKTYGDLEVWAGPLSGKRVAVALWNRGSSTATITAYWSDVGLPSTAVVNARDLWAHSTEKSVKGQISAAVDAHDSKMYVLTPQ

For the molecule `Nc1c(O)cccc1O`, inhibition in assay [1] was half-maximal at 4.2 µM (IC50). The inhibition (commonly the drop in the measured response relative to a control, in per cent) in the assay on Prunus dulcis was 12%; in the assay on Canavalia ensiformis, 3%; in assay [2] it was 8%; in assay [3], 4%; in assay [4], 11%. Further, in assay [5], the Ki (usually the equilibrium dissociation constant of an inhibitor or competing ligand from its target) was 4.2 µM.

In the case of `O=c1cc(-c2ccccc2)oc2cc(O)c(O)c(O)c12` [BAICALEIN], the IC50 (as a rule, the concentration that inhibits the measured activity by half) in assay [1] stood at 52 µM.

As for `N[C@H]1[C@H](O)CCC[C@@H]1O`, the IC50 in assay [1] was > 500 µM. In assay [6], this molecule registered an inhibition of 10%.

Consider `CC(=O)c1ccc(O)c(N)c1O`, for which, in [1], the midpoint of inhibition, the IC50, lay at 3.6 µM. For the same molecule, the inhibition was found to be 7% in the assay with Prunus dulcis; 4% in the assay on Canavalia ensiformis; 10% in [2]; 5% in assay [3]; 15% in assay [4].

For the molecule `Nc1c(O)cc2oc(-c3ccccc3)cc(=O)c2c1O`, in assay [1], the IC50 turned out to be 2.4 µM. Besides, the inhibition in [7] was 32%; in the assay with Prunus dulcis, 19%; in the assay with Canavalia ensiformis it was 7%; in [2] it was 6%; in assay [3], 10%; in assay [4] it was 12%.

Regarding `Oc1cccc(O)c1O` [PYROGALLOL], in assay [1], the IC50 was > 500 µM. In assay [6], this molecule came in with an inhibition of 42%.

For the molecule `Nc1ccc(O)cc1O`, in [1], the IC50 is > 500 µM. In assay [6], this molecule showed an inhibition of 46%.
